Among the data in PubChem BioAssay AID330 (DTP/NCI, 2004) are T/C values, retold here.

Each structure is given as a SMILES string. Where “and” joins values, the source holds several entries; their conditions need not be identical. Equal entries are not always repeated. Toxic doses and inconclusive results are not listed.

The assay has as its system P388 leukemia ip, CD2F1 mice, survival T/C. In words: NCI In Vivo Anticancer Drug Screen. Data for tumor model P388 Leukemia (intraperitoneal) in CD2F1 (CDF1) mice. Particulars: endpoint: median survival time, higher = longer survival. Put shortly:
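Mice carrying the transplanted tumor received test compound or vehicle. Survival was recorded in each group, and the value is the treated-group measurement divided by that of the vehicle-treated control group.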

Setting [1] is: dose: 100.0 mg/kg/injection, schedule: Q01DX009 (ip), vehicle: saline with Tween-80.
[2] abbreviates: dose: 100.0 mg/kg/injection, schedule: Q01DX009 (ip), vehicle: saline.
Where [3] appears, read: dose: 200.0 mg/kg/injection, schedule: Q01DX009 (ip), vehicle: saline.
Setting [4] is: dose: 50.0 mg/kg/injection, schedule: Q01DX005 (ip), vehicle: saline with Tween-80.
Where [5] appears, read: dose: 100.0 mg/kg/injection, schedule: Q01DX005 (ip), vehicle: saline with Tween-80.
[6] abbreviates: dose: 50.0 mg/kg/injection, schedule: Q01DX009 (ip), vehicle: saline with Tween-80.
[7] abbreviates: dose: 200.0 mg/kg/injection, schedule: Q01DX009 (ip), vehicle: saline with Tween-80.
The mark [8] stands for this setting: dose: 50.0 mg/kg/injection, schedule: Q01DX009 (ip), vehicle: Klucel (hydroxypropylcellulose) (HPC).

Consider `Cc1coc2c1C(=O)C(=O)c1c-2ccc2c1CCCC2(C)CO` (stereo not drawn) (tested in a mixture with another compound), for which the T/C reads like this: under setting [1], 95 % of control; (dose: 400.0 mg/kg/injection, schedule: Q01DX009 (ip), vehicle: saline with Tween-80) 90 % of control.
With `COCCOC(=O)Cc1ccc(OC)c(OC)c1`, the T/C reads like this: under setting [2], 91 % of control; under setting [3], 100 % of control; (dose: 400.0 mg/kg/injection, schedule: Q01DX009 (ip), vehicle: saline) 104 % of control.
As for `Nc1ccc(Br)cc1N`, the T/C is, setting by setting: (dose: 50.0 mg/kg/injection, schedule: Q01DX009 (ip), vehicle: distilled water + Tween-80 + alcohol) 111 % of control; (dose: 50.0 mg/kg/injection, schedule: Q01DX009 (ip), vehicle: other) 100 % of control; (dose: 50.0 mg/kg/injection, schedule: Q01DX009 (ip), vehicle: saline + Tween-80 + alcohol) 95 % of control; (dose: 100.0 mg/kg/injection, schedule: Q01DX009 (ip), vehicle: distilled water + Tween-80 + alcohol) 120 % of control; (dose: 100.0 mg/kg/injection, schedule: Q01DX009 (ip), vehicle: other) 98 % of control; (dose: 100.0 mg/kg/injection, schedule: Q01DX009 (ip), vehicle: saline + Tween-80 + alcohol) 107 % of control. For the same molecule, the T/C is, setting by setting: (dose: 200.0 mg/kg/injection, schedule: Q01DX009 (ip), vehicle: distilled water + Tween-80 + alcohol) 150 % of control; (dose: 200.0 mg/kg/injection, schedule: Q01DX009 (ip), vehicle: other) 106 % of control; (dose: 200.0 mg/kg/injection, schedule: Q01DX009 (ip), vehicle: saline + Tween-80 + alcohol) 99 % of control.
In the case of `COC(=O)c1[nH]c(=O)c(C#N)c(C(=O)OC)c1C(=O)c1ccncc1`, the T/C was 95 % of control under setting [4] and 92 % of control under setting [5].
In the case of `CCCCC(=C=NCCCN(C)C)CC`, the T/C was 99 % of control (dose: 50.0 mg/kg/injection, schedule: Q01DX005 (ip), vehicle: saline); 92 % of control (dose: 100.0 mg/kg/injection, schedule: Q01DX005 (ip), vehicle: saline); 101 % of control (dose: 200.0 mg/kg/injection, schedule: Q01DX005 (ip), vehicle: saline).
Take `CC(=O)c1cnn(C(N)=O)c1C`: the T/C is, setting by setting: (dose: 15.0 mg/kg/injection, schedule: Q01DX005 (ip), vehicle: Klucel (hydroxypropylcellulose) (HPC)) 95 % of control and 96 % of control; (dose: 30.0 mg/kg/injection, schedule: Q01DX005 (ip), vehicle: Klucel (hydroxypropylcellulose) (HPC)) 100 % of control and 102 % of control; (dose: 60.0 mg/kg/injection, schedule: Q01DX005 (ip), vehicle: Klucel (hydroxypropylcellulose) (HPC)) 101 % of control and 97 % of control; (dose: 120.0 mg/kg/injection, schedule: Q01DX005 (ip), vehicle: Klucel (hydroxypropylcellulose) (HPC)) 105 % of control and 96 % of control and 98 % of control; (dose: 240.0 mg/kg/injection, schedule: Q01DX005 (ip), vehicle: Klucel (hydroxypropylcellulose) (HPC)) 107 % of control.
As to `CC(=O)N=C(N)N`, the T/C is, setting by setting: (dose: 50.0 mg/kg/injection, schedule: Q01DX009 (ip), vehicle: saline) 103 % of control; under setting [2], 100 % of control; under setting [3], 99 % of control.
As for `CC(C)COC(CNC(=O)c1ccccc1)C(Cl)(Cl)Cl` (stereo not drawn), the T/C reads like this: under setting [6], 100 % of control; under setting [1], 100 % of control; under setting [7], 110 % of control.
`CCOC(/C=C/c1ccccc1)OCC`: the T/C was 104 % of control (dose: 100.0 mg/kg/injection, schedule: Q04DX003 (ip), vehicle: saline) and 104 % of control (dose: 200.0 mg/kg/injection, schedule: Q04DX003 (ip), vehicle: saline).
As for `CCOC(=O)C1Sc2c(c(=O)n(C)c3ccccc23)C1=O` (stereo not drawn), the T/C is, setting by setting: (dose: 50.0 mg/kg/injection, schedule: Q01DX005 (ip), vehicle: Klucel (hydroxypropylcellulose) (HPC)) 101 % of control and 107 % of control and 110 % of control; (dose: 100.0 mg/kg/injection, schedule: Q01DX005 (ip), vehicle: Klucel (hydroxypropylcellulose) (HPC)) 99 % of control and 105 % of control and 108 % of control; (dose: 200.0 mg/kg/injection, schedule: Q01DX005 (ip), vehicle: Klucel (hydroxypropylcellulose) (HPC)) 108 % of control and 112 % of control and 123 % of control.
`CCOc1cc2c(cc1C(C)c1cc(C(C)(C)C)c(O)c(C(C)(C)C)c1)OCO2` (stereo not drawn): the T/C is 100 % of control under setting [4]; 91 % of control under setting [5]; 88 % of control (dose: 200.0 mg/kg/injection, schedule: Q01DX005 (ip), vehicle: saline with Tween-80).
On to `CCN(CC)CCNc1ccc(N=Nc2cnc3ccccc3c2)c2ccccc12`, for which the T/C (dose: 12.5 mg/kg/injection, schedule: Q01DX009 (ip), vehicle: Klucel (hydroxypropylcellulose) (HPC)) is 110 % of control; the T/C (dose: 12.5 mg/kg/injection, schedule: Q04DX003 (ip), vehicle: Klucel (hydroxypropylcellulose) (HPC)) was 109 % of control; the T/C (dose: 25.0 mg/kg/injection, schedule: Q01DX009 (ip), vehicle: Klucel (hydroxypropylcellulose) (HPC)) was 115 % of control; the T/C (dose: 25.0 mg/kg/injection, schedule: Q04DX003 (ip), vehicle: Klucel (hydroxypropylcellulose) (HPC)) was 100 % of control; the T/C under setting [8] was 115 % of control; the T/C (dose: 50.0 mg/kg/injection, schedule: Q04DX003 (ip), vehicle: Klucel (hydroxypropylcellulose) (HPC)) was 100 % of control.
As to `O=C1OC(C2OC(=O)C(=O)C2C(=O)c2ccccc2)C(C(=O)c2ccccc2)C1=O` (stereo not drawn), the T/C was 111 % of control (dose: 60.0 mg/kg/injection, schedule: Q01DX005 (ip), vehicle: saline with Tween-80); 108 % of control (dose: 120.0 mg/kg/injection, schedule: Q01DX005 (ip), vehicle: saline with Tween-80); 108 % of control (dose: 240.0 mg/kg/injection, schedule: Q01DX005 (ip), vehicle: saline with Tween-80).
Regarding `CC(C(=O)O)c1ncnn1-c1ccccc1` (stereo not drawn), the T/C was 105 % of control (dose: 60.0 mg/kg/injection, schedule: Q01DX005 (ip), vehicle: saline); 104 % of control (dose: 120.0 mg/kg/injection, schedule: Q01DX005 (ip), vehicle: saline); 102 % of control (dose: 240.0 mg/kg/injection, schedule: Q01DX005 (ip), vehicle: saline).
Regarding `CC12CCC(O)C=C1CCC1C2CCC2(C)C(C3=CC(=O)OC3)CCC12O` (stereo not drawn), the T/C (dose: 3.1 micrograms/kg/injection, schedule: Q01DX009 (ip), vehicle: saline with Tween-80) is 101 % of control; the T/C (dose: 6.2 micrograms/kg/injection, schedule: Q01DX009 (ip), vehicle: saline with Tween-80) is 100 % of control; the T/C (dose: 12.5 micrograms/kg/injection, schedule: Q01DX009 (ip), vehicle: saline with Tween-80) was 96 % of control; the T/C (dose: 25.0 micrograms/kg/injection, schedule: Q01DX009 (ip), vehicle: saline with Tween-80) is 102 % of control.
For the molecule `NC(CSSCC(N)C(=O)O)C(=O)O` (stereo not drawn), the T/C under setting [8] was 105 % of control; the T/C (dose: 100.0 mg/kg/injection, schedule: Q01DX009 (ip), vehicle: Klucel (hydroxypropylcellulose) (HPC)) was 105 % of control; the T/C (dose: 200.0 mg/kg/injection, schedule: Q01DX009 (ip), vehicle: Klucel (hydroxypropylcellulose) (HPC)) was 106 % of control.
As to `C=C(C)C1Oc2ccc(C(C)=O)cc2C1OC(=O)/C(C)=C\C` (stereo not drawn), the T/C reads like this: (dose: 22.5 mg/kg/injection, schedule: Q01DX009 (ip), vehicle: other) 107 % of control; (dose: 45.0 mg/kg/injection, schedule: Q01DX009 (ip), vehicle: other) 111 % of control; (dose: 90.0 mg/kg/injection, schedule: Q01DX009 (ip), vehicle: other) 107 % of control; (dose: 180.0 mg/kg/injection, schedule: Q01DX009 (ip), vehicle: other) 107 % of control.
In the case of `CCc1c2c(c(C)n1C)C(c1ccccc1)=NCC(=O)N2`, the T/C reads like this: under setting [6], 91 % of control; under setting [1], 98 % of control; under setting [7], 98 % of control.
For the molecule `OC(CC1CCCCN1)c1cc2c(Cl)cc(Cl)cc2c2cc(C(F)(F)F)ccc12` (stereo not drawn), the T/C reads like this: (dose: 12.5 mg/kg/injection, schedule: Q01DX009 (ip), vehicle: saline with Tween-80) 95 % of control; (dose: 25.0 mg/kg/injection, schedule: Q01DX009 (ip), vehicle: saline with Tween-80) 104 % of control; under setting [6], 101 % of control.
With `COc1ccc(Nc2ncc(C)n2-c2ccc(OC)cc2)cc1`, the T/C under setting [6] was 98 % of control, the T/C under setting [1] was 98 % of control and the T/C under setting [7] is 102 % of control.
As to `N#C/C=C/c1cccc([N+](=O)[O-])c1`, the T/C is 100 % of control (dose: 100.0 mg/kg/injection, schedule: Q01DX001 (ip), vehicle: saline with Tween-80); 100 % of control (dose: 200.0 mg/kg/injection, schedule: Q01DX001 (ip), vehicle: saline with Tween-80); 100 % of control (dose: 400.0 mg/kg/injection, schedule: Q01DX001 (ip), vehicle: saline with Tween-80).
